Entries after “also recorded” stand apart in the source; their conditions may differ. Like-named read-outs stand apart in the source and are kept apart here.
Assays:
RDHL [1] = test: Northern analysis of RDHL in HT29 APC-inducible cells; type: cell-based, human; conditions: 100 μM ZnCl2 24 h vs water, normalized to GAPDH
From the text: (§1) Cell Culture and Drug Treatments. […] Northern blotting.

RDHL [2] = test: Northern analysis of RDHL in HT29 β-galactosidase-inducible cells; type: cell-based, human; conditions: HT29 β-galactosidase-inducible cells (negative control); 100 μM ZnCl2 24 h vs water
From the text: as §1

cdx2 [3] = test: Northern analysis of cdx2 in HT29 APC-inducible cells; type: cell-based, human; conditions: 100 μM ZnCl2 24 h, data not shown
From the text: as §1

[4] = tested on: RA response genes in HT29 cells; test: Microarray analysis of RA response gene expression in HT29 cells; type: cell-based, human
From the text: (§2) Cell Culture and Drug Treatments.
(§3) Microarray Analysis. Slides were produced using a Generation m Microarray Spotter (Molecular Dynamics). Each microarray contained 4608 minimally redundant cDNAs spotted in duplicate on 3-aminopropyl-trimethoxy silane (Sigma) coated slides and UV crosslinked in a Stratalinker (Stratagene). The cDNA clones on the microarray were obtained from Research Genetics and Genome Systems. […] . Cultures were transferred to a multiscreen 96-well glass fiber filtration plate (Millipore) and growth medium voided. Twenty-five μl of 25 mM Tris-HCl, pH 8; 10 mM EDTA, 50 μl of 0.2N NaOH, 1% SDS and 160 μl of 0.7M potassium acetate, pH 4.8; 5.3M guanidine hydrochloride were added to each well of the glass filtration plate. Cell lysates were drawn through the glass filters under vacuum and filter-bound DNA was washed four times with 200 μl of 80% ethanol. Plasmid DNAs were eluted by centrifugation following the addition of 65 μl of distilled H2O. Samples were collected in a 96-well microtiter dish during centrifugation.
(§4) Generation of microarray probes, microarray hybridizations, and scanning Total RNA was isolated using Trizol reagent (Invitrogen) and poly-A RNA was selected using an Oligotex Kit (Qiagen). […]
(§5) Hybridizations were performed overnight at 42° C. in a humidified chamber. […] Fluorescent intensities were quantified using ArrayVision 4.0 (Imaging Research).

[5] = tested on: RA response genes in HCT116 cells; test: Microarray analysis of RA response gene expression in HCT116 cells; type: cell-based, human; conditions: 5 μM 5-Aza-CdR
From the text: as §2, §3, §4, §5

RDHL [6] = test: Northern analysis of RDHL expression in HT29 cells; type: cell-based, human; conditions: 5 μM 5-Aza-CdR, cultured 6 days
From the text: as §1

RDH5 [7] = test: Northern analysis of RDH5 expression in HCT116 cells; type: cell-based, human; conditions: 5-Aza-CdR
From the text: as §1

cdx2 [8] = test: Northern analysis of cdx2 expression in HT29 cells; type: cell-based, human; conditions: after 5-Aza-CdR
From the text: as §1

HT29 cells = conditions: found previously (56); cited from earlier work
HCT116 cells = conditions: following 5-Aza-CdR treatment; cited from earlier work
RDH5 [9] = test: Northern analysis of RDH5 expression in HT29 cells; conditions: after 5-Aza-CdR treatment
colon cancer cells = conditions: cited from earlier work

[Cl-].[Cl-].[Zn+2] [ZnCl2]
fold RDHL induction (RDHL [1]): 3.2 fold | fold RDHL induction (RDHL [2]): 1.2 fold | cdx2 induction after re-introduction of APC (cdx2 [3]): no cdx2 induction

Nc1ncn([C@H]2C[C@H](O)[C@@H](CO)O2)c(=O)n1 [5-Aza-CdR, 5-aza-2′-deoxycytidine]
RA responsiveness of RA response genes ([4]; 5 μM 5-Aza-CdR 10 days, then 1 μM RA 24 h): conferred RA responsiveness | RA response gene expression ([4]; 5 μM 5-Aza-CdR on day 0, cultured 10 days, microarray vs PBS/ethanol): enhances | RA response gene expression [5]: not induced | RDHL expression (RDHL [6]): expression of RDHL only after treatment with 5-Aza-CdR; also recorded: re-expressed | RDH5 expression (RDH5 [7]): no effect | cdx2 expression (cdx2 [8]): induction of cdx2 | differentiation and differentiation markers (HT29 cells): stimulates biological aspects of differentiation and the appearance of differentiation markers | markers of differentiation (HCT116 cells): few markers of differentiation | RDH5 levels (RDH5 [9]): slightly increased; also recorded: re-expressed

C[C@]12CC[C@H]3[C@@H](CCC4=CC(=O)CC[C@@]43C)[C@@H]1CC[C@@H]2O [testosterone]
cell growth of colon cancer cells (colon cancer cells; another group (87)): increased cell growth | cell growth of colon cancer cells (colon cancer cells; one study (86)): failed to affect cell growth

CC(=O)[C@H]1CC[C@H]2[C@@H]3CCC4=CC(=O)CC[C@]4(C)[C@H]3CC[C@]12C [progesterone]
cell growth of colon cancer cells (colon cancer cells; one study (86)): failed to affect cell growth

From patent US20050245440A1, “Regulation of a novel colon specific retinol dehydrogenase by apc and cdx2” (University of Utah Research Foundation, priority 2002, published 2005)
